Experimental data published in patent US20260176253A1 (priority 2021, published 2026).

Columns and labels:
5HT2A sensor [1] = format: cell-based
5HT2A sensor [2] = format: cell-based; remark: listed apart in the source
mice = experiment: Head-twitch response (HTR) in mice; format: in vivo
Method: Head twitch response (HTR) experiments. C57BL/6J Mice (9-10 weeks old) are housed following an IACUC approved protocol. The mice are habituated in the test cage for at least 30 min, injected intraperitoneally with compound (injection volume 5 ml/kg), returned to the empty test cage, and filmed for 20 minutes. Each video is scored for the number of head-twitches by a trained observer blinded to treatment condition.

rat cortical neurons = experiment: Neurite outgrowth in primary neuronal cultures assay; format: cell-based; design: key: A: Statistically significant mean increase as a percent of DMSO control at 10 μM or less; B: No statistically significant mean increase as a percent of DMSO control at 10 μM or less; conditions: 72h, vs DMSO control, 10 μM or less
Text: Neurite Outgrowth Assay. Neurite Outgrowth in Primary Neuronal Cultures Assay. Changes in the pattern of neurite outgrowth have been implicated in psychiatric and neurodegenerative disorders as well as traumatic injuries. The discovery of new compounds that can positively affect neuritogenesis are important for developing new therapeutics for neurological diseases. Measurement of neurite outgrowth of rat cortical neurons using an automated image-based assay was used to determine the neuroplastic effects of the compounds of the present disclosure. The neurite outgrowth assay was performed at Neurofit SAS (France) as described below.
Pregnant Wistar rats (Janvier; France) were used for the study. They were delivered 6 days before their use. Upon arrival at Neurofit animal facility, they were housed one per cage and maintained in a room with controlled temperature (21-22° C.) and a reversed light-dark cycle (12 h/12h; lights on: 17:30-05:30; lights off: 05:30-17:30) with food and water available ad libitum.
Female Wistar rats of 17 days gestation were killed by cervical dislocation and the fetuses were removed from the uterus. Their brains were placed in ice-cold medium of Leibovitz (L15, Gibco, Fisher bioblock, France). Cortices were dissected and meninges were carefully removed. The cortical neurons were dissociated by trypsinization for 30 min at 37° C. (trypsin-EDTA, Gibco) in presence of 0.1 mg/ml DNAse I (Roche, France). The reaction was stopped by addition of Dulbecco's Modified Eagle Medium (DMEM; Gibco) with 10% of fetal bovine serum (FBS; Gibco). The suspension was triturated with a 10-ml pipette and using a needle syringe 21G and centrifuged at 350×g for 10 min at room temperature. The pellet of dissociated cells was resuspended in a medium consisting of Neurobasal (Gibco) supplemented with 2% B27 supplement (Gibco), 0.5 mM L-Glutamine (Gibco), an antibiotic-antimicotic mixture. Viable cells were counted in a Neubauer cytometer using the trypan blue exclusion test (Sigma). Cells were seeded at a density of 10000 cells per well in 96-well plate (Costar) precoated with poly-L-lysine. Test compound at different concentrations were added to the cultures. Donepezil (positive control) was tested at 250 nM.
After 72h (3 days) of plating, cultures were fixed with paraformaldehyde in PBS (4%, Sigma) for 30 min at 4° C. Then, cells were successively permeabilized with 0.1% Triton X100 for 30 min, saturated with PBS containing 3% of BSA and were incubated 1 h with anti-beta III tubulin antibody (Sigma) at 1/10 000 in PBS containing 0.5% of BSA. Cells were washed three times with PBS containing 0.5% of BSA, and they were incubated 1 h with goat anti-mouse antibody coupled with AF488 (Invitrogen A11001) diluted at 1/1000 in PBS containing 0.5% of BSA. Finally, nuclei were staining with DAPI 1 mg/ml at 1/1000 in PBS containing 0.5% of BSA. After rinsing with PBS, the plate was filmed and neurite networks were examined and analyzed using High-Content Screening (CellInsight, Thermo Scientific). The average number of neurites per neuron and the average total length of neurites per neuron were the main parameters analyzed. Analysis of data was performed using analysis of variance (ANOVA). The Fisher's Protected Least Significant Difference test was used for multiple comparisons. A p value ≤0.05 was considered significant. The software used is StatView 5.0 from SAS Institut.

5-HT2A [3] = molecular target: T1, 5-HT2A (Homo sapiens, UniProt P28223); experiment: Serotonin 5-HT2A in vitro cellular IPOne agonism assay (HTRF); format: cell-based; design: host or cells: CHO-K1; conditions: CHO-K1 cells, 60 min
T1 sequence (P28223 whole entry): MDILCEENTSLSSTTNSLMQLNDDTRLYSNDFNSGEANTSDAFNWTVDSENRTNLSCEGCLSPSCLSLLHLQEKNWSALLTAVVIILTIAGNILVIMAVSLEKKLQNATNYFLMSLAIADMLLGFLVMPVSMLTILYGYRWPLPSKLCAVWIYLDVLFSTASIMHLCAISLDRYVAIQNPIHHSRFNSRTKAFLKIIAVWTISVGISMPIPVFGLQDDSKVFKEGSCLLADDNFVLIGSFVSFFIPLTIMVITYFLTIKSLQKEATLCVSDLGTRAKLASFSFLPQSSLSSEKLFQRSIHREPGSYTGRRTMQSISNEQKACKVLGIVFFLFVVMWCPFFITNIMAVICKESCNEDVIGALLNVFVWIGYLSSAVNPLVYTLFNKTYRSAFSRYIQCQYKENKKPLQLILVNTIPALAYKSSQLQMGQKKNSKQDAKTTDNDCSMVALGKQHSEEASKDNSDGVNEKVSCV
Method: (§1) Serotonin 5-HT2AIn Vitro Cellular IPOne Agonism Assay. The 5-HT2AIPOne HTRF assay was performed at Epics Therapeutics S. A. (Belgium, FAST-0505I) using conventional methods. Briefly, CHO—K1 cells expressing human recombinant 5-HT2A receptor grown to mid-log phase in culture media without antibiotics were detached with PBS-EDTA, centrifuged, and resuspended in medium without antibiotics buffer. 20,000 cells were distributed in a 96 well plate and incubated overnight at 37° C. with 5% Co2.
For agonist testing, the medium was removed and 20 μl of assay buffer plus 20 μl of test compound or reference agonist were added in each well. The plate was incubated for 60 min. at 37° C. with 5% CO2.
(§2) After addition of the lysis buffer containing IP1-d2 and anti-IP1 cryptate detection reagents, plates were incubated 1-hour at room temperature, and fluorescence ratios were measured according to the manufacturer specification, with the HTRF kit.

5-HT2A [4] = molecular target: T1, 5-HT2A; experiment: Serotonin 5-HT2A in vitro cellular IPOne antagonism assay (HTRF); format: cell-based; design: host or cells: CHO-K1; conditions: CHO-K1 cells, reference agonist a-Me-5HT
Method: as §1, with “Antagonism” for “Agonism”, “FAST-0505I) in antagonism mode” for “FAST-0505I)”
For antagonist testing, a reference agonist a-Me-5HT was added and fluorescence signal monitored for several minutes, followed by addition of 20 μl of assay buffer plus 20 μl of test compound or reference antagonist ketanserin, in each well. The plate was incubated for 60 min. at 37° C. with 5% CO2.
as §2

5-HT2A [5] = molecular target: T1, 5-HT2A; experiment: Serotonin 5-HT2A in vitro radioligand binding competition assay ([3H]-DOI); design: purchased Epics Therapeutics S. A. (Belgium), contract assay FAST-0505B; host or cells: membrane extracts; conditions: [3H]-DOI competition, membrane extracts; read-out: 5HT2A R[…] ACTIVITY
Method: Serotonin 5-HT2AIn Vitro Radioligand Binding Competition Assay. The 5-HT2A radioligand binding competition assay was performed at Epics Therapeutics S. A. (Belgium, FAST-0505B) using conventional methods. Briefly, competition binding is performed in duplicate in the wells of a 96 well plate (Master Block, Greiner, 786201) containing binding buffer (optimized for each receptor), membrane extracts (amount of protein/well optimized for each receptor), radiotracer [3H]-DOI (final concentration optimized for each receptor) and test compound. Nonspecific binding was determined by co-incubation with 200-fold excess of cold competitor. The samples were incubated in a final volume of 0.1 ml at a temperature and for a duration optimized for each receptor and then filtered over filter plates. Filters were washed six times with 0.5 ml of ice-cold washing buffer (optimized for each receptor) and 50 µl of Microscint 20 (Packard) were added in each well. The plates were incubated 15 min on an orbital shaker and then counted with a TopCount™ for 1 min/well.

| SMILES | activation of the 5HT2A sensor assay in agonist mode (5HT2A sensor [1]) | competition with 5-HT in the 5HT2A sensor assay in antagonist mode (5HT2A sensor [2]) | head-twitch response (HTR) (mice) | INCREASE IN NEURITE BRANCHING (rat cortical neurons) | INCREASE IN NEURITE LENGTH (rat cortical neurons) | INCREASE IN NEURITE NUMBER (rat cortical neurons) | EC50 (5-HT2A [3]) [µM] | IC50 (5-HT2A [4]) [µM] | IC50 (5-HT2A [5]) [µM] |
| --- | --- | --- | --- | --- | --- | --- | --- | --- | --- |
| CCN(CC)C(=O)[C@@H]1C=C2c3cccc4[nH]c(Br)c(c34)C[C@H]2N(C)C1 [BOL148] | do not activate the 5HT2A sensor assay in agonist mode | can compete with 5HT binding to 5HT2A | – | – | – | – | – | – | – |
| COc1ccc2[nH]cc(CCN(C)C)c2c1 [Compound 5-MeO-DMT] | activate the 5HT2A sensor assay in agonist mode | – | robust, dose-dependent head-twitch response | – | – | – | – | – | – |
| CCN(CC)CCc1c[nH]c2cc(F)ccc12 [Compound 6-F-DET] | do not activate the 5HT2A sensor assay in agonist mode | can compete with 5HT binding to 5HT2A | – | – | – | – | – | – | – |
| COc1ccc2c(CCN(C)C)c[nH]c2c1 [Compound 6-MeO-DMT] | do not activate the 5HT2A sensor assay in agonist mode | compete off 5-HT | does not produce a HTR | – | – | – | – | – | – |
| c1ccc2c3c([nH]c2c1)CCN1CCC[C@H]1C3 [Compound 23, (S)-1,2,3,5,6,7,12,12a-octahydropyrrolo[1′,2′:1,7]azepino[4,5-b]indole] | – | – | – | A | A | A | > 10 | 0.01 to 0.1 | 0.101 to 1 |
| COc1ccc2c3c([nH]c2c1)CCN1CCC[C@@H]1C3 [Compound 24, (R)-9-methoxy-1,2,3,5,6,7,12,12a-octahydropyrrolo[1′,2′:1,7]azepino[4,5-b]indole] | – | – | – | A | A | A | > 10 | 0.101 to 1 | 1 to 10 |
| COc1ccc2c3c([nH]c2c1)CCN1CCC[C@H]1C3 [Compound 25, (S)-9-methoxy-1,2,3,5,6,7,12,12a-octahydropyrrolo[1′,2′:1,7]azepino[4,5-b]indole] | – | – | – | A | A | A | > 10 | 0.101 to 1 | > 10 |
| COc1cccc2[nH]c3c(c12)C[C@H]1CCCN1CC3 [Compound 26, (R)-11-methoxy-1,2,3,5,6,7,12,12a-octahydropyrrolo[1′,2′:1,7]azepino[4,5-b]indole] | – | – | – | A | A | A | 0.01 to 0.1 | < 0.01 | 0.101 to 1 |
| COc1cccc2[nH]c3c(c12)C[C@@H]1CCCN1CC3 [Compound 27, (S)-11-methoxy-1,2,3,5,6,7,12,12a-octahydropyrrolo[1′,2′:1,7]azepino[4,5-b]indole] | – | – | – | A | A | A | 0.01 to 0.1 | 0.01 to 0.1 | 0.01 to 0.1 |
| FC(F)(F)c1cccc2[nH]c3c(c12)CC1CCCN1CC3 (stereo not drawn) [Compound 28, 11-(trifluoromethyl)-1,2,3,5,6,7,12,12a-octahydropyrrolo[1′,2′:1,7]azepino[4,5-b]indole] | – | – | – | A | A | A | 1 to 10 | 0.01 to 0.1 | 0.101 to 1 |
| CN(C)CCc1c[nH]c2ccccc12 [DMT, N,N-dimethyltryptamine] | activate the 5HT2A sensor assay in agonist mode | – | – | – | – | – | – | – | – |
| COc1cc(CC(C)N)c(OC)cc1I (stereo not drawn) [DOI] | activate the 5HT2A sensor assay in agonist mode | – | – | – | – | – | – | – | – |
| O=C(c1ccc(F)cc1)C1CCN(CCn2c(=O)[nH]c3ccccc3c2=O)CC1 [Ketanserin] | do not activate the 5HT2A sensor assay in agonist mode | can compete with 5HT binding to 5HT2A | – | – | – | – | – | – | – |
| CN[C@H](C)Cc1ccc2c(c1)OCO2 [L-MDMA] | do not activate the 5HT2A sensor assay in agonist mode | – | – | – | – | – | – | – | – |
| CCN(CC)C(=O)[C@@H]1C=C2c3cccc4[nH]cc(c34)C[C@H]2N(C)C1 [LSD] | activate the 5HT2A sensor assay in agonist mode | – | – | – | – | – | – | – | – |
